Assays:
Male Sprague Dawley rats [1] = experiment: Dural inflammation migraine model, facial tactile hyperesthesia (50% facial response threshold, von Frey filaments); format: in vivo, rat
Male Sprague Dawley rats [2] = experiment: Dural inflammation migraine model, tactile hyperesthesia of the hindpaw (50% paw withdrawal threshold, von Frey filaments); format: in vivo, rat

CNS(=O)(=O)Cc1ccc2[nH]cc(CCN(C)C)c2c1 [sumatriptan]
50% facial response threshold versus control rats with dural IM cocktail only (Male Sprague Dawley rats [1]; systemic administration thirty minutes after IM cocktail (FIGS. 6A-6B)): increase in facial response threshold | 50% paw withdrawal threshold versus control rats with dural IM cocktail only (Male Sprague Dawley rats [2]; 0.6 mg/kg s.c. ten minutes prior to IM cocktail (FIG. 8)): increase in paw withdrawal threshold | tactile hyperesthesia of the hindpaw induced by dural inflammation (Male Sprague Dawley rats [2]; sumatriptan succinate subcutaneously 1 mg/kg five minutes prior to dural IM cocktail, results two hours after dural treatment (FIG. 10)): attenuates tactile hyperesthesia of the hindpaw

CCCCN1CCCCC1C(=O)Nc1c(C)cccc1C (stereo not shown) [bupivacaine]
50% facial response threshold versus control rats with dural IM cocktail only (Male Sprague Dawley rats [1]; administered in the RVM thirty minutes after IM cocktail (FIGS. 7A-7B)): increase in facial response threshold | 50% paw withdrawal threshold versus control rats with dural IM cocktail only (Male Sprague Dawley rats [2]; administered in the RVM thirty minutes after IM cocktail (FIG. 9A)): increase in paw withdrawal threshold | 50% paw withdrawal threshold versus control rats with dural IM cocktail only (Male Sprague Dawley rats [2]; administered in the RVM two hours after IM cocktail (FIG. 9B)): significant increase in test animal paw withdrawal threshold

N[C@@H](CCC(=O)N[C@@H](CSN=O)C(=O)NCC(=O)O)C(=O)O [SNOG, s-nitrosylglutathione]
tactile hyperesthesia of the hindpaw after administration to the dura (Male Sprague Dawley rats [2]; administered to the dura, results two hours after treatment (FIG. 4)): produced a tactile hyperesthesia effect similar to that induced by administration of the IM cocktail

From patent publication US20080031822A1, “Methods of modeling migraine pain and identifying candidate compounds for the treatment of migraine” (priority 2006, published 2008)
